From ChEMBL document CHEMBL3046105, “Synthesis and antihyperlipidemic efficiency of berberine-based HMG-CoA reductase inhibitor” (Med Chem Res, 2012)

Key:
Oryctolagus cuniculus [1] = test: Antihyperlipidemic activity in high fat-high cholesterol fed New Zealand Oryctolagus cuniculus (rabbit) assessed as high-density lipoprotein-cholesterol level in blood at 15 mg/kg, po for 40 days (reference value: 0.67 +/- 0.22 mmol/l); type: functional
Oryctolagus cuniculus [2] = test: Antihyperlipidemic activity in high fat-high cholesterol fed New Zealand Oryctolagus cuniculus (rabbit) assessed as low-density lipoprotein-cholesterol level in blood at 15 mg/kg, po for 40 days (reference value: 3.45 +/- 0.56 mmol/l); type: functional
[3] = Toxicity in Mus musculus Kunming (mouse); type: organism-based; conditions: in vivo
Oryctolagus cuniculus [4] = test: Antihyperlipidemic activity in high fat-high cholesterol fed New Zealand Oryctolagus cuniculus (rabbit) assessed as triglyceride level in blood at 15 mg/kg, po for 40 days (reference value: 2.11 +/- 0.43 mmol/l); type: functional
Oryctolagus cuniculus [5] = test: Antihyperlipidemic activity in high fat-high cholesterol fed New Zealand Oryctolagus cuniculus (rabbit) assessed as total cholesterol level in blood at 15 mg/kg, po for 40 days (reference value: 8.89 +/- 0.53 mmol/l); type: functional
Oryctolagus cuniculus [6] = test: Toxicity in high fat-high cholesterol fed New Zealand Oryctolagus cuniculus (rabbit) assessed as mortality at 15 mg/kg, po for 40 days; type: organism-based; parameters: dose 15 mg/kg, route oral; conditions: in vivo, 960 h
Oryctolagus cuniculus [7] = test: Toxicity in high fat-high cholesterol fed New Zealand Oryctolagus cuniculus (rabbit) assessed as body weight at 15 mg/kg, po for 40 days; type: organism-based; parameters: dose 15 mg/kg, route oral; conditions: in vivo, 960 h
[8] = biological target: T1, 3-hydroxy-3-methylglutaryl-coenzyme A reductase (Mus musculus) (UniProt Q01237); test: Inhibition of HMGR isolated from Mus musculus (mouse) liver assessed as change in NADPH at 8 umol/l by HPLC analysis
T1 sequence (whole entry): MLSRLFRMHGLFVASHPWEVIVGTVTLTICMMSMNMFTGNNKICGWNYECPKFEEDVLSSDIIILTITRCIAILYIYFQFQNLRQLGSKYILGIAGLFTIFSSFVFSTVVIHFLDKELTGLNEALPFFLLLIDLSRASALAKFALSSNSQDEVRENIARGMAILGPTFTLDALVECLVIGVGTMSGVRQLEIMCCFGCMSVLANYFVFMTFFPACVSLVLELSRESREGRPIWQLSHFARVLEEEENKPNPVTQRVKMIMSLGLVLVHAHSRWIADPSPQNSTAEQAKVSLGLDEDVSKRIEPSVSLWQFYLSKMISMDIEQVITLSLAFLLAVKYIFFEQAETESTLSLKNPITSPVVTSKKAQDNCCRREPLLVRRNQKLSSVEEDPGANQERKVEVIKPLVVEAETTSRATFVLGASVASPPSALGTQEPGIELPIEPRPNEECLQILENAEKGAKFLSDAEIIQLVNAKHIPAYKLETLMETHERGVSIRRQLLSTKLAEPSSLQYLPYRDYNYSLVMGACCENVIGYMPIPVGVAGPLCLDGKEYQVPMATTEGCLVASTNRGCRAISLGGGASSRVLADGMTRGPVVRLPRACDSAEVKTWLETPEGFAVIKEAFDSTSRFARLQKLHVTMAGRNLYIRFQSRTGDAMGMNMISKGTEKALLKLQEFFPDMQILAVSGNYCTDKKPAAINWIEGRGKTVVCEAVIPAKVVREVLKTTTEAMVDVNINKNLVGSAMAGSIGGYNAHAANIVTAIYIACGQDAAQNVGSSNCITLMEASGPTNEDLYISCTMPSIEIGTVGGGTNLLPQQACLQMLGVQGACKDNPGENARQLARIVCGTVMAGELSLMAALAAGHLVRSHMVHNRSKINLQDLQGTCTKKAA

Oryctolagus cuniculus [9] = test: Antihyperlipidemic activity in high fat-high cholesterol fed New Zealand Oryctolagus cuniculus (rabbit) assessed as low-density lipoprotein-cholesterol level in blood at 4 mg/kg, po for 40 days (reference value: 3.45 +/- 0.56 mmol/l); type: functional
Oryctolagus cuniculus [10] = test: Antihyperlipidemic activity in high fat-high cholesterol fed New Zealand Oryctolagus cuniculus (rabbit) assessed as high-density lipoprotein-cholesterol level in blood at 4 mg/kg, po for 40 days (reference value: 0.67 +/- 0.22 mmol/l); type: functional
Oryctolagus cuniculus [11] = test: Antihyperlipidemic activity in high fat-high cholesterol fed New Zealand Oryctolagus cuniculus (rabbit) assessed as total cholesterol level in blood at 4 mg/kg, po for 40 days (reference value: 8.89 +/- 0.53 mmol/l); type: functional
Oryctolagus cuniculus [12] = test: Antihyperlipidemic activity in high fat-high cholesterol fed New Zealand Oryctolagus cuniculus (rabbit) assessed as triglyceride level in blood at 4 mg/kg, po for 40 days (reference value: 2.11 +/- 0.43 mmol/l); type: functional

Structure (SMILES) | Activity (Oryctolagus cuniculus [1]) [nmol/L] | Activity (Oryctolagus cuniculus [2]) [nmol/L] | LD50 [3] [mg/kg] | Activity (Oryctolagus cuniculus [4]) [nmol/L] | Activity (Oryctolagus cuniculus [5]) [nmol/L] | Activity (Oryctolagus cuniculus [6]) | Activity (Oryctolagus cuniculus [7]) | inhibition [8] [%] | Activity (Oryctolagus cuniculus [9]) [nmol/L] | Activity (Oryctolagus cuniculus [10]) [nmol/L] | Activity (Oryctolagus cuniculus [11]) [nmol/L] | Activity (Oryctolagus cuniculus [12]) [nmol/L]
COc1ccc2cc3[n+](cc2c1OC)CCc1cc2c(cc1-3)OCO2.[Cl-] [BERBERINE CHLORIDE] | 700000 | 3.27e+06 | 764 | 2.02e+06 | 7.94e+06 | – | – | – | – | – | – | –
CCCCCCCCc1c2c(OC)c(OC)ccc2cc2[n+]1CCc1cc3c(cc1-2)OCO3.[Cl-] [8-OCTYL-BERBERINE CHLORIDE] | 700000 | 3.06e+06 | 534 | 1.95e+06 | 6.25e+06 | Non-toxic | Non-toxic | – | – | – | – | –
CCCCCCCCCCCCc1c2c(OC)c(OC)ccc2cc2[n+]1CCc1cc3c(cc1-2)OCO3.[Cl-] [8-DODECYL-BERBERINE CHLORIDE] | 720000 | 2.98e+06 | 752 | 1.86e+06 | 6.04e+06 | Non-toxic | Non-toxic | 4.2 | – | – | – | –
CCCCCCCCCCCCCCc1c2c(OC)c(OC)ccc2cc2[n+]1CCc1cc3c(cc1-2)OCO3.[Cl-] [8-TETRADECYL-BERBERINE CHLORIDE] | 730000 | 2.41e+06 | 803 | 1.73e+06 | 6.02e+06 | Non-toxic | Non-toxic | 11.2 | – | – | – | –
CC[C@H](C)C(=O)O[C@H]1C[C@@H](C)C=C2C=C[C@H](C)[C@H](CC[C@@H]3C[C@@H](O)CC(=O)O3)[C@H]21 [LOVASTATIN] | – | – | > 1000 | – | – | – | – | 20.2 | 1.85e+06 | 780000 | 2.56e+06 | 1.62e+06
CCCCCCCCCCCCCCCCCCc1c2c(OC)c(OC)ccc2cc2[n+]1CCc1cc3c(cc1-2)OCO3.[Cl-] [8-OCTADECYL-BERBERINE CHLORIDE] | 750000 | 2.55e+06 | > 1000 | 1.6e+06 | 2.37e+06 | Non-toxic | Non-toxic | 33 | – | – | – | –
